Experimental data: US9567333B2, “Triazolopyridyl compounds as aldosterone synthase inhibitors” (Merck Sharp & Dohme Corp., priority 2011, dated 2017)

Experiments:
human CYP11B2 = human CYP11B2 (Homo sapiens (Human), UniProt P19099); experiment: V79-Human-CYP11B2 cell assay; type: cell-based; conditions: V79 cells stably expressing human CYP11B2; 125 nM 11-deoxycorticosterone substrate; aldosterone by HTRF
Procedure: (§1) Methods for V79-Human-CYP11B2 and V79-Human-CYP11B1 Assays: V79 cell lines stably expressing the either the human CYP11B2 or the human CYP11B1 enzyme were generated using a standard transfection protocol. V79 cells were transfected with plasmids pTriEx3-Hygro-hCyp11B2 or pTriEx3-Hygro-hCyp11B1 using Lipofectamine2000 reagent. V79 cells that stably express the human CYP11B2 or human CYP11B1 enzyme were selected for and maintained in DMEM supplemented with 10% FBS and 400 µg/mL hygromycin for ˜2 weeks. Single cell clones were generated by infinite dilution in DMEM supplemented with 10% FBS and 400 µg/mL hygromycin until single colonies were obtained. Clones V79-hCYP11B2-CLE9 and V79-hCYP11B1-8CL7, were determined to produce the most aldosterone and cortisol, respectively, and were selected for inhibitor screening. For testing of inhibitors, cells were harvested at 80% confluency with 0.05% Trypsan-EDTA, washed once in PBS, and reconstituted in DMEM+0.1% BSA media at a cell concentration of 600,000 cells/mL for the CYP11B2 assay and 280,000 cells/ml for the CYP11B1 assay. 25 μL of cells were added to a 384 well tissue culture treated plate and mixed with 0.3 μL of inhibitor or DMSO (1% final DMSO concentration) for 1 hour at 37° C., 5% CO2. After pre-incubation with inhibitor, the reaction was initiated by adding 5 μL of substrate (final concentration of 125 nM 11-deoxycorticosterone for the CYP11B2 assay or 250 nM 11-deoxycortisol for the CYP11B1 assay). The reaction was carried out for 3 hours at 37° C., 5% CO2 and was stopped by harvesting the supernatants. The amount of product in the supernatant (aldosterone for CYP11B2 assay and cortisol for the CYP11B1 assay) was measured using HTRF-based assay kit (Aldosterone HTRF-CisBio #64ALDPEB, Cortisol HTRF-CisBio #63IDC002-CORT). IC50s for the inhibitor were determined by plotting the amount of product formed against the concentration of inhibitor using sigmoidal dose-response curve (variable slope) fit in GraphPad.

human CYP11B1 = human CYP11B1 (Homo sapiens (Human), UniProt P15538); experiment: V79-Human-CYP11B1 cell assay; type: cell-based; conditions: V79 cells stably expressing human CYP11B1; 250 nM 11-deoxycortisol substrate; cortisol by HTRF
Procedure: as §1

Sequence of human CYP11B1 (P15538 25-503): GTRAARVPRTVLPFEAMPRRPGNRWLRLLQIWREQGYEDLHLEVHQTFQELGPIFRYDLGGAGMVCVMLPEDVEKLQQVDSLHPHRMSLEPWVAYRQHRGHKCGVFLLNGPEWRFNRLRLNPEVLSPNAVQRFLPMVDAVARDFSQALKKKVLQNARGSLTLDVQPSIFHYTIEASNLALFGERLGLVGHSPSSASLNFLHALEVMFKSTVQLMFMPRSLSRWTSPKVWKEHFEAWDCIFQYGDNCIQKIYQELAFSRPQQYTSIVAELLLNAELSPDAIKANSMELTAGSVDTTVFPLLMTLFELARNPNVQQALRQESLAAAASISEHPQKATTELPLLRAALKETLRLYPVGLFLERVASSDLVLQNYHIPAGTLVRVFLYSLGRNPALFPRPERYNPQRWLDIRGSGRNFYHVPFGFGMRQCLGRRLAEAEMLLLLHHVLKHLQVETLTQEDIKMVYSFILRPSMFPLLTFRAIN
Sequence of human CYP11B2 (P19099 25-503): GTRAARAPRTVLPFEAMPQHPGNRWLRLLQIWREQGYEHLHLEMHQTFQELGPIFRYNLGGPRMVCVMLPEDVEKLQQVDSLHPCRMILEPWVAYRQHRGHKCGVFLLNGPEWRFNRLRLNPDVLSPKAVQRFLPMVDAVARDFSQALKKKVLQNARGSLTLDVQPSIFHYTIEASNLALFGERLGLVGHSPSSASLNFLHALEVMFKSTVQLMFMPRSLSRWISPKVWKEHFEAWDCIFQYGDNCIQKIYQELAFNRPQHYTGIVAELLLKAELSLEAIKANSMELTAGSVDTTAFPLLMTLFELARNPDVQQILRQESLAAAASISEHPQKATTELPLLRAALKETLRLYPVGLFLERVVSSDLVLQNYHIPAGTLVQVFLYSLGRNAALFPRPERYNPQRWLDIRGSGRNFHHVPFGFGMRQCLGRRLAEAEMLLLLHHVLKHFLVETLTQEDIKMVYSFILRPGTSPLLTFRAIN

c1ccc2c(-c3nc4ccccn4n3)cncc2c1 [Example 5, 4-([1,2,4]triazolo[1,5-a]pyridin-2-yl)isoquinoline]
IC50 (human CYP11B2): 0.138 µM
IC50 (human CYP11B1): > 8.33 µM

Clc1cccn2nc(-c3cncc4ccccc34)nc12 [Example 7, 4-(8-chloro-[1,2,4]triazolo[1,5-a]pyridin-2-yl)isoquinoline]
IC50 (human CYP11B2): 0.171 µM
IC50 (human CYP11B1): > 8.33 µM

CC(C)(O)c1cncc(-c2nc3ccc(F)cn3n2)c1 [Example 12, 2-(5-(6-fluoro-[1,2,4]triazolo[1,5-a]pyridin-2-yl)pyridin-3-yl)propan-2-ol]
IC50 (human CYP11B2): 1.07 µM
IC50 (human CYP11B1): > 8.33 µM

Cc1cccc2nc(-c3cncc(Br)c3)nn12 [Example 13, 2-(5-bromopyridin-3-yl)-5-methyl-[1,2,4] triazolo[1,5-a]pyridine]
IC50 (human CYP11B2): 0.884 µM
IC50 (human CYP11B1): > 8.33 µM

Fc1cc(F)c2nc(-c3cncc4ccccc34)nn2c1 [Example 18, 4-(6,8-difluoro-[1,2,4]triazolo[1,5-a]pyridin-2-yl)isoquinoline]
IC50 (human CYP11B2): 0.126 µM
IC50 (human CYP11B1): > 8.33 µM

Fc1ccn2nc(-c3cncc4ccccc34)nc2c1 [Example 20, 4-(7-fluoro-[1,2,4]triazolo[1,5-a]pyridin-2-yl)isoquinoline]
IC50 (human CYP11B2): 0.022 µM
IC50 (human CYP11B1): 1.08 µM

Fc1ccc2nc(-c3cncc4ccccc34)nn2c1 [Example 21, 4-(6-fluoro-[1,2,4]triazolo[1,5-a]pyridin-2-yl)isoquinoline]
IC50 (human CYP11B2): 0.046 µM
IC50 (human CYP11B1): 2.15 µM
